The results in this text go back to publication PMC7782499, “Progerinin, an optimized progerin-lamin A binding inhibitor, ameliorates premature senescence phenotypes of Hutchinson-Gilford progeria syndrome” (Communications Biology, 2021).

Where “and” joins values, the source holds several entries; their conditions need not be identical. Identical values can stand only once.

The test system of this data set is HGPS cells. Description: Nuclear deformation counting in HGPS cells. It is filed as cell-based, human. On the set-up: key to Nuclear deformation (rate): fraction of nuclear-deformed cells, relative to DMSO-treated cells. Particulars: for Nuclear deformation (rate): 7 days, normalized to DMSO-treated cells; for Nuclear deformation: AG03198. The method, then:
Fig. 1 SLC-D011 ameliorates premature aging features of HGPS. A. HEK293 cells were transiently transfected with expression vector encoding wild-type lamin A (WT-LA), lamin A-C661A (LA-C661A), progerin, or progerin-C611A. LA-C661A or progerin-C611A with point mutation in CaaX motif was predicted to be lack of farnesylation, […] that of authentic WT-LA or progerin. GFP-conjugated empty expression vector was used as a negative control. Cells were visualized at 24 h after transfection. B Transient transfection of HEK293 cells with expression vector encoding progerin or […] leads to reduced expression of H3K9me3 (n = 3 independent experiments; two-tailed Student’s t test). C. JH4 derivatives (JH010 and SLC-D011(D011)) inhibit lamin A and progerin interaction. For binding inhibition assay, bead-conjugated lamin A (GST-LA) was incubated with HEK293 cells, transiently transfected with GFP-progerin (PG), and treated with indicated chemicals. Actin was used as a loading control. PPT, co-precipitated materials with recombinant proteins; Sup supernatant. 5 μM of each chemical was used for binding assay. […] H3K9me3 reduction is a well-known marker for premature aged cells. Thus, H3K9me3 expression was evaluated by immunostaining. […] E SLC-D011 obviously suppresses progerin expression. For progerin expression analysis, each chemical was used to treat HGPS cells (AG03198, Coriell Cell Repositories) for 7 days. […] F SLC-D011 reduces the expression of progerin in other HGPS cells (AG11513 and AG11498, Coriell Cell Repositories). Treatment with SLC-D011 (2 μM) for 7 days reduced the expression of progerin and p16/INK4A but induced the expression of H3K9me3. […] G JH4, JH010, and SLC-D011 promote cell proliferation. Cell viability was determined by MTT assay after incubation with chemicals for 7 days (n = 3 independent experiments; two-tailed Student’s t test). H JH4, JH010, and SLC-D011 show similar activity for ameliorating nuclear deformation. After incubation with chemicals for 7 days, cells were stained with progerin and H3K9me3 antibodies (n = 3 independent experiment; two-tailed Student’s t test), **p < 0.001. Data are reported as mean ± SD. “Con” means Dimethyl sulfoxide (DMSO)-treated control. The data are normalized to DMSO-treated cells.
For nuclear deformation cell counting, immunofluorescence staining was performed with lamin A or progerin antibodies. After staining, abnormal nuclear membrane was counted in randomly selected fields and expressed as percentages or actual numbers of total cells counted. Abnormalities of nuclear membrane were determined based on the following: (1) lamin A/C or progerin lining was extruded or engulfed, (2) having at least one bleb, and (3) irregular contour. Counting of cells with nuclear deformation was performed by three independent observers who were blinded to chemical treatment group. To analyze histone H3K9me3 intensity or expression, images were quantified using “color histogram” function of Image J software (National Institute of Health, NIH). Fluorescence intensities were subtracted by background signals.

As to `CC1(C)Oc2cc3oc(=O)ccc3cc2CC1OC(=O)C=Cc1cccnc1` (centres unmarked) [JH4], the “Nuclear deformation (rate)” value was 0.7742 and 0.8571 and 0.5758 and 0.6176 and 0.8 and 0.6765 (AG03198, 2uM); 0.7169 (AG03198, 2uM, mean); 0.5161 and 0.5357 and 0.5455 and 0.4706 and 0.5667 and 0.5294 (AG03198, 5uM); 0.5273 (AG03198, 5uM, mean).
Take `CC1(C)Oc2cc3oc(=O)ccc3cc2C[C@@H]1OC/C=C/c1ccccc1` [SLC-D011]: the “Nuclear deformation (rate)” value is 0.4839 and 0.6786 and 0.4545 and 0.4706 and 0.5 (AG03198, 2uM); 0.5146 (AG03198, 2uM, mean); 0.4194 and 0.4286 and 0.303 and 0.2353 and 0.3667 and 0.2941 (AG03198, 5uM); 0.3412 (AG03198, 5uM, mean). Further, the Nuclear deformation (0.1μM, Ave) is recorded as 36.4%; the Nuclear deformation (0.1μM, individual replicate) is 35% and 37% and 40% and 36% and 34%; the Nuclear deformation (0.2μM, Ave) came out at 33.2%; the Nuclear deformation (0.2μM, individual replicate) was 33% and 34% and 30% and 36%; the Nuclear deformation (0.5μM, Ave) stood at 25.8%; the Nuclear deformation (0.5μM, individual replicate) was 29% and 28% and 27% and 19% and 26%. In addition, the Nuclear deformation runs as follows: (1μM, Ave) 21.4%; (1μM, individual replicate) 23% and 20% and 22% and 19%.
With `NC(=O)N1CCC(CC(=O)N2CCC([C@H]3c4ncc(Br)cc4CCc4cc(Cl)cc(Br)c43)CC2)CC1` [lonafarnib, reference compound], the Nuclear shape entry (HGPS cells) is “induced donut-shaped nuclei”.
